Experiments:
[1] = Secondary pharmacology panel; settings: 10 μM initial screen; apart from adenosine receptors; data not shown
B16-CD73+ tumor cells = assay: Experimental lung metastasis model, B16-CD73+ cells i.v.; format: in vivo, C57Bl/6 mice; settings: 15 mg/kg/day oral gavage, daily for 15 days, vs vehicle, P < .05
MCA205 tumor cells = assay: Experimental lung metastasis model, MCA205 cells i.v.; format: in vivo, C57Bl/6 mice; settings: 30 mg/kg/day oral gavage, daily for 7 days, vs vehicle, P < .05
[2] = test system: human tumor-infiltrating lymphocytes (TILs); assay: Ex vivo assay of disaggregated resected NSCLC tumors, γ-interferon ELISA; format: cell-based; settings: tumors of Figure 5 A and B; 3 days culture
A2aR = settings: alone or in combination with anti-PD-1 and anti-CTLA4; cited from earlier work

Row | SMILES | effect in secondary pharmacology profile [1] | tumor burden (lung nodules, lung weight) (B16-CD73+ tumor cells) | tumor burden (lung nodules, lung weight) (MCA205 tumor cells) | TIL function (γ-interferon), combination of PBF-509 with anti-PD-L1 [2] | tumor burden in vivo (A2aR)
1 | Nc1nc(-n2cccn2)nc(-n2cccn2)c1Br [PBF-509] | did not show any relevant effect | significantly reduced tumor burden | significantly reduced tumor burden | improved TIL function in an additive fashion | 
2 | Nc1nc2c(cnn2CCc2ccccc2)c2nc(-c3ccco3)nn12 [SCH58261] |  |  |  |  | decreased tumor burden
3 | Nc1nc(NCCc2ccc(O)cc2)nc2nc(-c3ccco3)nn12 [ZM241385] |  |  |  |  | decreased tumor burden
